ChEMBL document CHEMBL1201862, “PubChem BioAssay data set” (2004)
Active and inactive are the calls of the source.

Tests used:
[1] = NIH-3T3 fibroblast cytotoxicity, dose response, cytotoxicity control, cell-based, fluorescence, Alamar Blue, secondary assay (AID 2327); assay type: functional;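 also: NIH-3T3 mouse fibroblasts cultured with fluconazole at 8 µg/mL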
[2] = molecular target: T1, G-protein coupled receptor 55 (Homo sapiens, UniProt Q9Y2T6); assay: blockers of GPR55 signalling, imaged – imaging, image-based, counter-screen for GPR35 antagonist project, SAR follow-up (AID 2397); assay type: functional
T1 sequence (Q9Y2T6 whole entry): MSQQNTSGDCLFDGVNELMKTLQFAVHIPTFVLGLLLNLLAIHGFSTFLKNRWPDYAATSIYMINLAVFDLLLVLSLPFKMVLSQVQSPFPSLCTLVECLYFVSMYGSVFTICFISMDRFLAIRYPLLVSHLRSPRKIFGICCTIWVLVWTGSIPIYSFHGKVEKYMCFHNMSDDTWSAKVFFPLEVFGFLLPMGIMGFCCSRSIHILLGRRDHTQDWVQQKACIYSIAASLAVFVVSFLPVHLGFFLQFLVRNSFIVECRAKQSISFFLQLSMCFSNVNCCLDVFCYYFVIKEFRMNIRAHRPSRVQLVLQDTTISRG

BJ [3] = assay: BJ-TERT fibroblast viability loss – cell-based, RAS-independent, luminescence, dose response (AID 1933); assay type: functional; settings: Homo sapiens
[4] = DRD fibroblast viability loss – cell-based, non-viral oncogenic, luminescence, dose response (AID 1934); assay type: functional; settings: Homo sapiens
[5] = fluconazole-exposed Candida albicans growth modulators – fluorescence, retest, confirmation (AID 2467); assay type: functional, cell-based
BJ [6] = assay: cells; assay type: functional, cell-based; settings: Homo sapiens
BJ [7] = assay: BJ-TERT-LT-ST fibroblast viability loss – cell-based, RAS-independent, luminescence, dose response (AID 1935); assay type: functional; settings: Homo sapiens;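 also: BJ fibroblasts immortalized with TERT plus LT and ST oncogenes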
INS1 = assay: INS-1E survival protection against cytokine death – cell-based, luminescence, retest, dose response (AID 449756); assay type: functional; settings: Rattus norvegicus;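 also: cell death triggered by IL-1 beta plus TNF-alpha plus IFN-gamma mixture; protective hits raise ATP signal compared with cytokine alone wells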
[8] = molecular target: T2, Tyrosine-protein phosphatase non-receptor type 22 (Homo sapiens, UniProt Q9Y2R2); assay type: functional
T2 sequence (Q9Y2R2 whole entry): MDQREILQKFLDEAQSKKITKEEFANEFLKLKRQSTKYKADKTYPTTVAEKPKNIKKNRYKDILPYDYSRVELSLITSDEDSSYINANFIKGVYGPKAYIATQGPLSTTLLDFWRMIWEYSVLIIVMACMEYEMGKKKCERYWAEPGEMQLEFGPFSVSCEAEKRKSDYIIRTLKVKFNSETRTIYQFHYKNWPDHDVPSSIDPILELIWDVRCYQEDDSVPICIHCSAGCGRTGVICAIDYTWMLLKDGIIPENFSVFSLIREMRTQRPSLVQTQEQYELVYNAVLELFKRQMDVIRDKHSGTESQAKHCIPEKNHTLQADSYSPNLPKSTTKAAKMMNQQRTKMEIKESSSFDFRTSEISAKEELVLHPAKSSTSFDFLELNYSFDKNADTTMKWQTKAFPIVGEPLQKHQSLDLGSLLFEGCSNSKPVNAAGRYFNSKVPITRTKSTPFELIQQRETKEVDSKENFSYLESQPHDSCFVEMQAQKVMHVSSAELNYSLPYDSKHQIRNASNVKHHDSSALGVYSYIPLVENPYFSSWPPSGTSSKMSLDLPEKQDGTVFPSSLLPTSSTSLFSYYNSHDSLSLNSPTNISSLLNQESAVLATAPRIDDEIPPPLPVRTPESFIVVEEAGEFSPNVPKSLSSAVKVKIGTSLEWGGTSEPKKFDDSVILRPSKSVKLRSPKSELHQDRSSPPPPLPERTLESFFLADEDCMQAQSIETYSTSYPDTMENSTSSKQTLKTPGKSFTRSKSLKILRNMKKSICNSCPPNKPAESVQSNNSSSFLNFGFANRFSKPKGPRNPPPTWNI

[9] = molecular target: T3, Tyrosine-protein phosphatase non-receptor type 7 (Homo sapiens, UniProt P35236); assay type: functional
T3 sequence (P35236 whole entry): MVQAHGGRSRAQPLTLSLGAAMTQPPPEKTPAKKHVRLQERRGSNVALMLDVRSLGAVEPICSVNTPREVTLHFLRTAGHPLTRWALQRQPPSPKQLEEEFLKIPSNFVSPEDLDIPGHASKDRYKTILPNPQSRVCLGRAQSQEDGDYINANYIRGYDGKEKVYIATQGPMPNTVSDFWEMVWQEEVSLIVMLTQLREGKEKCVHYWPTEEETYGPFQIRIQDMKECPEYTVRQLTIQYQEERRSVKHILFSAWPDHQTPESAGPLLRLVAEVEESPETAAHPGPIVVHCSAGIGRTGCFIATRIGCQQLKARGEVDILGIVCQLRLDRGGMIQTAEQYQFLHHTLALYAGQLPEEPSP

[10] = molecular target: T2, Tyrosine-protein phosphatase non-receptor type 22; assay type: functional; remark: listed apart in the source
Cytochrome P450 2D6 = Cytochrome P450 2D6 (Homo sapiens, UniProt P10635);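 also: CYP2D6 member of a cytochrome P450 panel assay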
Chain of Cytochrome P450 2D6 (P10635 whole entry): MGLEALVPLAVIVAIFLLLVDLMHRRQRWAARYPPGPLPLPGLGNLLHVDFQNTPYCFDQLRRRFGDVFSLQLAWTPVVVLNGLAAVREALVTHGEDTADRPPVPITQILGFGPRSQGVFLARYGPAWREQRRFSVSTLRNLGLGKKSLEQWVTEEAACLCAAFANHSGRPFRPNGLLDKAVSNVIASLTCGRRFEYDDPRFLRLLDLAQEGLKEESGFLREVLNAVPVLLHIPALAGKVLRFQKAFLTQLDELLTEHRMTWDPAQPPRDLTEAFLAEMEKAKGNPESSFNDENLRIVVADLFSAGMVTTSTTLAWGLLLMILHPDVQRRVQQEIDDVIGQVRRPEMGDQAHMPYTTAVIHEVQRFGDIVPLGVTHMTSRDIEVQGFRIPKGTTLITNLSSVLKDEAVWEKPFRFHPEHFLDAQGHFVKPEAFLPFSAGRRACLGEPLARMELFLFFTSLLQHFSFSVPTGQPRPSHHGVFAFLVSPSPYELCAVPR

Cytochrome P450 1A2 = molecular target: T4, Cytochrome P450 1A2 (Homo sapiens, UniProt P05177);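 also: PubChem cytochrome P450 panel assay, CYP1A2 panel member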
T4 sequence (P05177 whole entry): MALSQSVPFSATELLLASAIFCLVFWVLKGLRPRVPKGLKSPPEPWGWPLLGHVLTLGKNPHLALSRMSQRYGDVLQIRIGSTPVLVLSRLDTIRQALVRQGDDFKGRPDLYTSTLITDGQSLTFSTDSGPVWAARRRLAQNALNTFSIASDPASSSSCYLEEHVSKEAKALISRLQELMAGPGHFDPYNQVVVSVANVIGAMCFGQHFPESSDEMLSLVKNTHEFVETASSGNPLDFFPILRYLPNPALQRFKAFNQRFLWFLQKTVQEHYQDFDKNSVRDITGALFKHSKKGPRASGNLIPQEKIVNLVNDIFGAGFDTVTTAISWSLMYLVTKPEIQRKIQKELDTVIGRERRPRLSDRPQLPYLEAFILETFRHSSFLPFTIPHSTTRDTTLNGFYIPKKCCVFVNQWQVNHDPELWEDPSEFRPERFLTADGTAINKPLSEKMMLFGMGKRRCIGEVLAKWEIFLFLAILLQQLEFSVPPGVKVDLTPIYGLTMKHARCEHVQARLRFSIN

[11] = viability of PTEN-deleted HCT116 cells – cell-based, HCT116 PTEN knockout, dose response (AID 1047); assay type: functional;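 also: HCT116 colon tumor cells with PTEN knocked out; cells exposed to compound for 60 hours before readout; potency for loss of cell viability measured by luminescence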
Integrin alpha-4 = Integrin alpha-4 (Homo sapiens, UniProt P13612); assay: allosteric modulators of alpha4 integrin VLA-4 – cell-based, LIBS antibody binding, flow cytometry, SAR follow-up (AID 488791); assay type: functional
Chain of Integrin alpha-4 (P13612 whole entry): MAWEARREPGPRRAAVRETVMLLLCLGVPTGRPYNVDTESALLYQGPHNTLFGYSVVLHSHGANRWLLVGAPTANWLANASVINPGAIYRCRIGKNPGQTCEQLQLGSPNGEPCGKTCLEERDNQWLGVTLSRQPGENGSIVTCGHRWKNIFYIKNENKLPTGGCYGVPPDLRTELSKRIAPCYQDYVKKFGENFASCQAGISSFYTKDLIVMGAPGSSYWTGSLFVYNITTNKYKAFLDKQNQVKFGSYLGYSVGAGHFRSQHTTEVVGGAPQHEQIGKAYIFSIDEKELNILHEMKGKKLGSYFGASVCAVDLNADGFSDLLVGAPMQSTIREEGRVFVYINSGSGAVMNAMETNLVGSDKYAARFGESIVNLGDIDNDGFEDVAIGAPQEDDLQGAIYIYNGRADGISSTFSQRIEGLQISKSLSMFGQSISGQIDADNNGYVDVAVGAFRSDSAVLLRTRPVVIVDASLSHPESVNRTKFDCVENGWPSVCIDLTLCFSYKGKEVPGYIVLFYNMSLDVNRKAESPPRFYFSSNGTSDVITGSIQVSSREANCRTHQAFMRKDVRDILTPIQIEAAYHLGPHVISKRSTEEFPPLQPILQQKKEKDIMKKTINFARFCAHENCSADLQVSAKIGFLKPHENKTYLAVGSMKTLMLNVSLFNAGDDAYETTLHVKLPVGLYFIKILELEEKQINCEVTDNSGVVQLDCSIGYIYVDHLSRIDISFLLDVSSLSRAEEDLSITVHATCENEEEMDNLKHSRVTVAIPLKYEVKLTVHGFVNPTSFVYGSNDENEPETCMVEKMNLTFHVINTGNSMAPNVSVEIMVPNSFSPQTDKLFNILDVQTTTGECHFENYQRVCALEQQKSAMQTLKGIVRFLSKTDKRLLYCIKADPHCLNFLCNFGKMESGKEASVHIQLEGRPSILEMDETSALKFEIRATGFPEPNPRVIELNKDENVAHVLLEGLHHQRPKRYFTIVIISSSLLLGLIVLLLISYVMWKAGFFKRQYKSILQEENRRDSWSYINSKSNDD

[12] = molecular target: T5, Sphingosine 1-phosphate receptor 4 (Homo sapiens, UniProt O95977); assay: Late stage fluorescence dose response cell-based screening assay for antagonists of the Sphingosine 1-Phosphate Receptor 4 (S1P4). [Related pubchem assays: 1524 (Confirmation screen (S1P4 antagonists).), 1510 (Primary screen (S1P4 antagonists).), 1853 (Summary AID (S1P4 antagonists).), 1692 (Dose response screen (S1P4 antagonists).)]; assay type: functional
T5 sequence (O95977 whole entry): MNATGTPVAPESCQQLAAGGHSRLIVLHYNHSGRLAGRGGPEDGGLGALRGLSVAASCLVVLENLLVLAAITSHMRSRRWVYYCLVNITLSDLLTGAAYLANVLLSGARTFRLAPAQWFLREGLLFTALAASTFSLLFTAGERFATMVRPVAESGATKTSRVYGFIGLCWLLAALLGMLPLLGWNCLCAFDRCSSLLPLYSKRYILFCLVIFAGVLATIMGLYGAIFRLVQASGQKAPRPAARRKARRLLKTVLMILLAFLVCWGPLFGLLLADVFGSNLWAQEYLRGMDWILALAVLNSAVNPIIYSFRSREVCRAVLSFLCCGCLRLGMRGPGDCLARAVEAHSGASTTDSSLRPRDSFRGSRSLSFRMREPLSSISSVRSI

[13] = molecular target: T6, Sphingosine 1-phosphate receptor 1 (Homo sapiens, UniProt P21453); assay type: functional
T6 sequence (P21453 whole entry): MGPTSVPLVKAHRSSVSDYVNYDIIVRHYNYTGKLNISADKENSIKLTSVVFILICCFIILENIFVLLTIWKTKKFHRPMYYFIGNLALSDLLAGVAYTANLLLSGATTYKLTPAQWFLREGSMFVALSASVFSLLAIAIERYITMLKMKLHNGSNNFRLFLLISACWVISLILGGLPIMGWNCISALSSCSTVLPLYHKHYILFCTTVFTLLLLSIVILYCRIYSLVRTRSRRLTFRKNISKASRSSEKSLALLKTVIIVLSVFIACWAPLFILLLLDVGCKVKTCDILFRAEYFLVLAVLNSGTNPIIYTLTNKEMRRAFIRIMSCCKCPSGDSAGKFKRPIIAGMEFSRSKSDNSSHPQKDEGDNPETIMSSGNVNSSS

[14] = molecular target: Sphingosine 1-phosphate receptor 2 (Homo sapiens, UniProt O95136); assay: Late stage counterscreen assay for S1P4 antagonists: Fluorescence dose response cell-based screening assay for antagonists of the Sphingosine 1-Phosphate Receptor 2 (S1P2). [Related pubchem assays (depositor defined):AID1510, AID1524, AID1692, AID1853, AID2332, AID489009, AID489017]; assay type: functional
Chain of Sphingosine 1-phosphate receptor 2 (O95136 whole entry): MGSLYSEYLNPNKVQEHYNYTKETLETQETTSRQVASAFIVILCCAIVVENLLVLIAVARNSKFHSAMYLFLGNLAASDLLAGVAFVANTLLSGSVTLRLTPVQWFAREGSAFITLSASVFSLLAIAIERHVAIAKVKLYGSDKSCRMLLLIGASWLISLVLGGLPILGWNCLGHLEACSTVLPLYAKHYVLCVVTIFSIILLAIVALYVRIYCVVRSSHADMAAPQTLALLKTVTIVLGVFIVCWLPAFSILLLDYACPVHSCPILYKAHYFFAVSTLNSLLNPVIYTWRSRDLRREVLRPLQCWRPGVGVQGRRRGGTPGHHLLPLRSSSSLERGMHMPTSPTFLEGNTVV

[15] = molecular target: T7, Heat shock factor protein 1 (Mus musculus, UniProt P38532); assay: decrease of HSF1-responsive luciferase luminescence – cell-based, NIH3T3, dose retest, confirmation (AID 2382); assay type: functional;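 also: NIH3T3 fibroblasts with HSF1-driven luciferase reporter stressed by proteasome inhibitor MG132; luminescence from HSF1-driven luciferase expression after 8 hours of MG132 stress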
T7 sequence (P38532 whole entry): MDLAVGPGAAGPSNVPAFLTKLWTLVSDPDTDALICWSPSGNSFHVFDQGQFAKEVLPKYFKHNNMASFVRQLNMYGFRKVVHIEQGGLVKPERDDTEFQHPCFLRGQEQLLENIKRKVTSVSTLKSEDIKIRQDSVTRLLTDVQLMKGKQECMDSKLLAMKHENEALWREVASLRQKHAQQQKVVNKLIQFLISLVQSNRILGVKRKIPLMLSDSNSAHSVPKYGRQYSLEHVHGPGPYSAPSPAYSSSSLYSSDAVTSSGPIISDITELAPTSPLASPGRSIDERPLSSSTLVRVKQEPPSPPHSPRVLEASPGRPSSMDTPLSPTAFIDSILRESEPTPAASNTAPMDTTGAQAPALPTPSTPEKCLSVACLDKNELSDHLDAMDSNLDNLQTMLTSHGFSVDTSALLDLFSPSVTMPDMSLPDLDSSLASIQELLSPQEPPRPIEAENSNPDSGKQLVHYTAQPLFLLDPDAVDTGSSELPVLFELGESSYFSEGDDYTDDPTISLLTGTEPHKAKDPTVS

[16] = molecular target: T1, G-protein coupled receptor 55; assay: selective activators of receptor GPR55 – imaging, U2OS cells, beta-arrestin-GFP redistribution, primary screen (AID 1961); assay type: functional
[17] = molecular target: Sphingosine 1-phosphate receptor 3 (Homo sapiens, UniProt Q99500); assay: Late stage counterscreen assay for S1P4 antagonists: Fluorescence dose response cell-based screening assay for antagonists of the Sphingosine 1-Phosphate Receptor 3 (S1P3). [Related pubchem assays (depositor defined):AID1510, AID1524, AID1692, AID1853, AID2332, AID489009, AID489017]; assay type: functional
Chain of Sphingosine 1-phosphate receptor 3 (Q99500 whole entry): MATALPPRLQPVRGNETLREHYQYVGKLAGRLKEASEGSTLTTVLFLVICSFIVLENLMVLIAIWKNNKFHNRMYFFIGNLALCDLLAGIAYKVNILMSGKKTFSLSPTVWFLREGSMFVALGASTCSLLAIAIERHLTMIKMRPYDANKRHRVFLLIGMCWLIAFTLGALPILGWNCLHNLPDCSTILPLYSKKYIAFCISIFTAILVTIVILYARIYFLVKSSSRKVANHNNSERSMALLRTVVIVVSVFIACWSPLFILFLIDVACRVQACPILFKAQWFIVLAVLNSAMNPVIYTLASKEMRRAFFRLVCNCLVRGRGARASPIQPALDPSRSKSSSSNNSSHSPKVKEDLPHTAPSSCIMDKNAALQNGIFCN

[18] = molecular target: T6, Sphingosine 1-phosphate receptor 1; assay: Late stage counterscreen assay for S1P4 antagonists: Fluorescence dose response cell-based screening assay for antagonists of the Sphingosine 1-Phosphate Receptor 1 (S1P1). [Related pubchem assays (depositor defined):AID1510, AID1524, AID1692, AID1853, AID2332, AID489009, AID489017]; assay type: functional
[19] = viability of HCT116 lacking mutant beta-catenin – cell-based, human colon tumor, dose response (AID 1045); assay type: functional;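 also: HCT116 colon tumor cells with beta catenin knocked out; cells exposed to compound for 60 hours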
[20] = molecular target: T5, Sphingosine 1-phosphate receptor 4; assay: Fluorescence dose response cell-based high throughput screening assay for antagonists of the Sphingosine 1-Phosphate Receptor 4 (S1P4). [Related pubchem assays: 1524 (Confirmation in triplicates.), 1510 (Primary screen.)]; assay type: functional
[21] = molecular target: Sphingosine 1-phosphate receptor 5 (Homo sapiens, UniProt Q9H228); assay: Late stage counterscreen assay for S1P4 antagonists: Fluorescence dose response cell-based screening assay for antagonists of the Sphingosine 1-Phosphate Receptor 5 (S1P5). [Related pubchem assays (depositor defined):AID1510, AID1524, AID1692, AID1853, AID2332, AID489009, AID489017]; assay type: functional
Chain of Sphingosine 1-phosphate receptor 5 (Q9H228 whole entry): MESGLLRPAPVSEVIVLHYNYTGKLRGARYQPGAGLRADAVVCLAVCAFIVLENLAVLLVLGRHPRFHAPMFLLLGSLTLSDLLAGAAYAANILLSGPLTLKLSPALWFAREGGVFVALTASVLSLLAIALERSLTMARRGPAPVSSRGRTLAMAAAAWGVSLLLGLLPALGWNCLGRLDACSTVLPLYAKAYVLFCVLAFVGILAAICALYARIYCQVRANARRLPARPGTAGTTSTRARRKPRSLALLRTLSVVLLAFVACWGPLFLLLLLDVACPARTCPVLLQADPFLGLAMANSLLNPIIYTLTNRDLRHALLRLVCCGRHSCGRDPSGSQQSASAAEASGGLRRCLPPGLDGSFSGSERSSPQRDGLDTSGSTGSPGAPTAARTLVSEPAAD

Cn1cc(/C=C/c2cc[n+](C)cc2)c2cc(Cl)ccc21
inactive: EC50 [1] > 150 µM
> 150 µM (not active): EC50 (BJ [7])
active: IC50 [2] 3.42 µM | EC50 (BJ [3]) 9.8 µM | EC50 [5] 1.29 µM | EC50 (BJ [6]) 16.2 µM | AC50 (INS1) 4.33 µM
inconclusive: EC50 [4] 22.1 µM

O=C(c1ccncc1)N1CCN(C(=O)c2ccncc2)CC1
inactive: IC50 [8] > 79.4 µM | IC50 [9] > 79.4 µM | IC50 [10] > 79.4 µM

COc1ccccc1CN1CC2(CCN(S(C)(=O)=O)CC2)C1
inconclusive: AC50 (Cytochrome P450 2D6) | AC50 (Cytochrome P450 1A2)

CCOC(=O)/C(=C\c1ccc(OC(F)F)cc1)C1=Nn2c(nnc2-c2ccc(Cl)cc2)SC1
inactive: EC50 [16] > 32 µM
active: EC50 [11] 10.2 µM | EC50 (Integrin alpha-4) 11.8 µM | IC50 [12] 0.342 µM | IC50 [13] 6.1 µM | IC50 [14] 0.614 µM | EC50 [15] 6.62 µM | IC50 [17] 0.494 µM | IC50 [18] 0.351 µM | EC50 [19] 9.67 µM | IC50 [20] 0.168 µM | AC50 (INS1) 4.22 µM | IC50 [21] 0.034 µM
